Measurements published in patent publication US8124599B2, “Method for treating neuronal and non-neuronal pain” (priority 2005, dated 2012).

What was measured:
[1] = test system: acute inflammatory muscle pain; experiment: Formalin lick test for acute inflammatory muscle pain; type: in vivo, mice
Experimental: The mice used in this work were C57B1/6 strain adults (8 weeks old) and AC1 knockout mice of C57B1/6 background (Wei et al., 2002; Neuron). The animals were housed on a 12 h: 12 h light: dark cycle with food and water available ad libidum. All the protocols were in accordance with the Animal Care Committee of the University of Toronto. Both wild type and the knockouts were well groomed. Experimenters were blind to genotype. Under brief halothane anesthesia, 10 μL of 5% formalin was injected to the left gastronemius muscle. The needle was directed from the lateral side to avoid any bony penetration and the tip was stopped at the middle of the muscle belly. The total time spent licking or biting the injected leg including the thigh and the paw was recorded and totaled every 5 minutes for a period of 2 hours. To study the effect of test compounds on behavior, each compound to be tested was injected intra-peritoneally 30 minutes before the intramuscular injection of formalin.

[2] = test system: chronic inflammatory muscle pain; experiment: Chronic inflammatory muscle pain (intramuscular carrageenan), mechanical allodynia by von Frey filament; type: in vivo, mice
Experimental: The mice used in this work were C57B1/6 strain adults (8 weeks old) and AC1 knockout mice of C57B1/6 background (Wei et al., 2002; Neuron). The animals were housed on a 12 h: 12 h light: dark cycle with food and water available ad libidum. All the protocols were in accordance with the Animal Care Committee of the University of Toronto. Both wild type and the knockouts were well groomed. Experimenters were blind to genotype. A muscle model of mechanical allodynia developed originally to study chronic pain (Sluka et al., 2001) was adapted for these experiments. Mice were briefly anaesthetized under halothane. 20μ liters carrageenan (3%, in normal saline pH 7.2) was injected intramuscularly deep into the left gastronemius muscle. Normal saline was used as a control. Injections were carried out on days 1 and 5. Behavioral nociceptive responses were measured on days 1, 2, 5 (before and after injection), 14 and 28. Mice were placed in a plexi-glass restrainer and allowed to acclimate for 30 minutes prior to testing. Mechanical allodynia was assessed based on the responsiveness of the hind paw to the application of von Frey filaments (Stoelting, Wood Dale, Ill.) to the point of bending. […] Ten trials were carried out each time at an interval of 5 minutes and the results were expressed as a percentage of positive responses. […]

neuropathic pain = experiment: Neuropathic pain (common peroneal nerve ligation), mechanical allodynia; type: in vivo, mice; conditions: 0.1 and 1 mg/kg body weight
Experimental: The mice used in this work were C57B1/6 strain adults (8 weeks old) and AC1 knockout mice of C57B1/6 background (Wei et al., 2002; Neuron). The animals were housed on a 12 h: 12 h light: dark cycle with food and water available ad libidum. All the protocols were in accordance with the Animal Care Committee of the University of Toronto. Both wild type and the knockouts were well groomed. Experimenters were blind to genotype. Mice were placed in a plexi-glass restrainer and allowed to acclimate for 30 minutes prior to testing. Mechanical allodynia was assessed based on the responsiveness of the hind paw to the application of von Frey filaments (Stoelting, Wood Dale, Ill.) to the point of bending. Positive responses include licking, biting and sudden withdrawing of the hind paw. Experiments were carried out to characterize the threshold stimulus. […] This filament was then used to test mechanical allodynia. Ten trials were carried out each time at an interval of 5 minutes and the results were expressed as a percentage of positive responses. Positive responses included prolonged hind paw withdrawal followed by licking or scratching. Neuropathic pain was induced by ligating the common peroneal nerve as previously known in the art. […] The effect of AC1 inhibition was assessed on maximal mechanical allodynia over the dorsum of the foot on the ipsilateral side of ligation on day 7. […]

[3] = test system: combined chronic inflammatory pain and neuropathic pain; experiment: Combination of chronic inflammatory pain and neuropathic pain, mechanical allodynia; type: in vivo, mice; conditions: i.p. pre-treatment
Experimental: The mice used in this work were C57B1/6 strain adults (8 weeks old) and AC1 knockout mice of C57B1/6 background (Wei et al., 2002; Neuron). The animals were housed on a 12 h: 12 h light: dark cycle with food and water available ad libidum. All the protocols were in accordance with the Animal Care Committee of the University of Toronto. Both wild type and the knockouts were well groomed. Experimenters were blind to genotype. A muscle model of mechanical allodynia developed originally to study chronic pain (Sluka et al., 2001) was adapted for these experiments. Mice were briefly anaesthetized under halothane. 20μ liters carrageenan (3%, in normal saline pH 7.2) was injected intramuscularly deep into the left gastronemius muscle. Normal saline was used as a control. Injections were carried out on days 1 and 5. Behavioral nociceptive responses were measured on days 1, 2, 5 (before and after injection), 14 and 28. […] Mechanical allodynia was assessed based on the responsiveness of the hind paw to the application of von Frey filaments (Stoelting, Wood Dale, Ill.) to the point of bending. […] Ten trials were carried out each time at an interval of 5 minutes and the results were expressed as a percentage of positive responses. […] The effect of AC1 inhibition was assessed on maximal mechanical allodynia over the dorsum of the foot on the ipsilateral side of ligation on day 7. […]

[4] = test system: mechanical allodynia in pain model; experiment: Oral administration to pain model (rat), mechanical allodynia; type: in vivo; conditions: 1 mg/kg/3 ml, as compared with the response to gabapentin

Question: With `Nc1ncnc2c1ncn2CCNCCCCCO` [HTS09836] as the compound, how does the “dose of peak response, licking response of acute muscle inflammatory pain” value ([1]; dose range 0.1 to 5 mg/kg) read?
Answer: 1 mg/kg body weight

Question: And the “licking response of acute muscle inflammatory pain” value ([1]; dose range of 0.1 to 5 mg/kg bodyweight, intra-peritoneally 30 minutes before formalin, P<0.001)?
Answer: significant reduction

Question: What about the “mechanical allodynia in chronic inflammatory muscle pain, comparison of dosages” value ([2]; 1 mg/kg versus 0.1 mg/kg) of the same compound?
Answer: superior effect

Question: And the “mechanical allodynia in chronic inflammatory muscle pain” value ([2]; 0.1 and 1 mg/kg body weight, von Frey filament)?
Answer: significant reduction in mechanical allodynia

Question: What about the “allodynia in neuropathic pain” value (neuropathic pain) of the same compound?
Answer: significantly reduced

Question: What about the “mechanical allodynia in combined chronic inflammatory and neuropathic pain” value ([3]; 0.1 and 1 mg/kg body weight) of the same compound?
Answer: significantly reduced

Question: `Nc1ncnc2c1ncn2CCNCCCCCO` [NB001] was tested. Which “mechanical allodynia in combined chronic inflammatory and neuropathic pain” value ([3]; 0.1 mg/kg and 1.1 mg/kg body weight) did it give?
Answer: significantly reduced

Question: And the “mechanical allodynia after oral administration” value [4]?
Answer: significant reduction in mechanical allodynia
